Experimental data reported in US4687773A, “(+)-N-N-propylnorapomorphine and selective limbic activity” (priority 1985, dated 1987).
Where two headings read alike, the source gives them in different places.

Columns and labels:
[1] = tested on: DA in the corpus striatum (basal ganglia); assay: Head posture (contralateral head deviation) after intrastriatal DA; assay type: in vivo, rat; settings: intrastriatal DA 16 μg; aporphine 3 mg/kg systemic (route not given)
[2] = tested on: DA in the limbic system (nucleus accumbens septi); assay: Arousal (locomotor activity) induced by DA injected into nucleus accumbens septi; assay type: in vivo, rat; settings: for activity counts (arousal induced by 16 μg DA in accumbens): 30 min, DA control 238 ± 38
Description: An experiment shown in Table 9 involves testing the effects of S(+) isomers of apomorphine (APO) and N-propylnorapomorphine (NPA) given systemically (intraperitoneally, ip), as well as S(+) methylenedioxy-N-propylnorapomorphine (MDO-NPA) given ip or orally (po, by orogastric intubation). […]. […] Activity was monitored for 30 min after injection of DA into the brain, which was done at 10 min after systemic dosing with an S(+)aporphine test compound.
Data are mean activity counts ± SEM (N = 6) for rats given DA into the
medial accumbens after pretreatment with an inhibitor of monoamine oxidas
(MA0), and monitored on EAM for 30 min (aporphine given 10 min before DA
systemicallyintraperitoneally [ip] or orally [po].

[3] = tested on: dopamine (DA) receptors in the limbic system; assay: Locomotor activity (spontaneous or aroused by (-)APO / (-)NPA), electronic activity monitor; assay type: in vivo, rat
[4] = tested on: dopamine (DA) receptors in the basal ganglia (corpus striatum); assay: Stereotyped licking and gnawing behavior rating in the rat; assay type: in vivo
From the text: Stereotypy: The mean stereotyped licking and gnawing behavioral rating scheme developed by Tarsy and Baldessarini^8 was used. […]
Stereotypy scores were rated for one hour as described in […]

[5] = tested on: dopamine (DA) receptors in the limbic system; assay: Locomotor activity (spontaneous or aroused by (-)APO / (-)NPA), electronic activity monitor; assay type: in vivo, rat; remark: listed apart in the source
Description: (§1) Activity: Overall motor activity was measured by use of the self-recording Stoelting electronic activity monitor method described previously by Stewart, Campbell, Sperk, and Baldessarini^9. Total activity is obtained by setting monitor sensitivity so as to detect both locomotion and small movements (such as grooming, sniffing, and chewing) as would be prominent in stereotyped responses that tend to diminish locomotion and increase sniffing, licking, and chewing movements. Locomotor activity is detected selectively by setting monitor sensitivity to detect large, locomotor movements, and to minimize smaller movements already described.
Rats (mean N=6 per condition) were tested for locomotor activity for 60 min following a single dose of (-)APO (0.3 mg/kg, SC), or its vehicle ("placebo" condition). The S(+) isomers were administered in a range of doses from 0 or 0.1 to 30 mg/kg, SC immediately following injection of (-)APO or its vehicle. Data are presented in FIG. 2 as mean EAM activity counts per hour SEM. In that figure, the dashed line labeled "control" represents the mean activity of rats given vehicle only and no aporphine (SD values are indicated by parallel light lines above and below the control mean).
Test agents (11substituted-N--propylnoraporphine isomers were given at a
dose of 3 mg/kg, ip (in 2 ml/kg) just prior to (-)apomorphine (APO, at 0.
mg/kg, ip, in 1 ml/kg) to rats (N = 6) tested in an electronic activity

[6] = tested on: dopamine (DA) receptors in the limbic system and basal ganglia; assay: Total motor activity, electronic activity monitor (EAM); assay type: in vivo, rat
Description: as §1
(§2) All data presented in the Tables below are expressed as the mean results from 4-6 rats per condition, ±S.E.M. Stereotypy is expressed in rating units (maximum=3.0) and activity is expressed in arbitrary units of percent change, derived from EAM counts per unit time, relative to activity in control (saline) animals set at zero.
All the posttreatment doses of (+)APO were 3.0 mg/kg, s.c. The data
All posttreatment doses of (+)NPA were 3 mg/kg, s.c. The data are similar

Dopamine Receptors [7] = assay type: binding, calf; settings: ligand [3H]ADTN (0.5 nM)
Dopamine Receptors [8] = assay type: binding, calf; settings: ligand [3H]APO (0.5 nM)
[9] = biological target: T1, rat liver catechol O-methyl-transferase (COMT) (Rattus norvegicus, UniProt P22734); assay: Isomeric substrate selectivity for rat liver COMT; assay type: biochemical
T1 construct: partially purified rat liver catechol O-methyl-transferase (COMT); from tissue; host or cells: rat liver, ammonium sulfate precipitation and dialysis
T1 sequence (P22734 1-221 isoform P22734-2): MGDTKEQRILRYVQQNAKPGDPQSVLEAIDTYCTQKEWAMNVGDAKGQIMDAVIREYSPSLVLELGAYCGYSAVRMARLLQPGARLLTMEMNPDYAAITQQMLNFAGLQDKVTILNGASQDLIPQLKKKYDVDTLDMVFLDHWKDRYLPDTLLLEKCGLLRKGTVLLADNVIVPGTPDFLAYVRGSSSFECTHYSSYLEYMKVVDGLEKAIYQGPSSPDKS

[10] = Catalepsy (latency to resume normal posture); assay type: in vivo, rat; settings: s.c., maximum 18.0
Description: Catalepsy: This measure of muscle rigidity is assessed by having animals in abnormal body positions and timing their duration of maintaining these. This is done by placing rats on a wire grid placed at a 45° angle to the benchtop, or by placing their forelimbs on a raised horizontal metal bar, and timing the latency to resume a normal posture by stopwatch.
as §2

[11] = biological target: T2, Dopamine (DA) sensitive adenylate cyclase (Rattus norvegicus, UniProt P18901); assay: Stimulation of formation of cyclic AMP in rat striatal homogenate; assay type: biochemical
T2 construct: homogenates of rat corpus striatum; from tissue; host or cells: rat corpus striatum homogenate
From the text: assayed in homogenates of corpus striatum obtained from rat brain. The
method of assay of the activity of DAsensitive adenylate cyclase by the
rate of formation of cAMP above a basal (no agonist) level is described
under Experimental Section. The data are mean values of cAMP levels in […]

[12] = Table 4, (+)APO 3.0 mg/kg s.c. after (-)APO 1.0 mg/kg
[13] = Table 4, (+)APO 3.0 mg/kg s.c. after (-)APO 0.3 mg/kg
[14] = Table 4, (+)APO 3.0 mg/kg s.c. after (-)APO 3.0 mg/kg
[15] = Table 4, (+)APO 3.0 mg/kg s.c., (-)APO 0
[16] = Table 5, (-)NPA 3.0 mg/kg + saline
[17] = Table 5, (-)NPA 0.3 mg/kg + saline
[18] = 2.5 min, read-out: cAMP production, % of control

T2 sequence (P18901 whole entry): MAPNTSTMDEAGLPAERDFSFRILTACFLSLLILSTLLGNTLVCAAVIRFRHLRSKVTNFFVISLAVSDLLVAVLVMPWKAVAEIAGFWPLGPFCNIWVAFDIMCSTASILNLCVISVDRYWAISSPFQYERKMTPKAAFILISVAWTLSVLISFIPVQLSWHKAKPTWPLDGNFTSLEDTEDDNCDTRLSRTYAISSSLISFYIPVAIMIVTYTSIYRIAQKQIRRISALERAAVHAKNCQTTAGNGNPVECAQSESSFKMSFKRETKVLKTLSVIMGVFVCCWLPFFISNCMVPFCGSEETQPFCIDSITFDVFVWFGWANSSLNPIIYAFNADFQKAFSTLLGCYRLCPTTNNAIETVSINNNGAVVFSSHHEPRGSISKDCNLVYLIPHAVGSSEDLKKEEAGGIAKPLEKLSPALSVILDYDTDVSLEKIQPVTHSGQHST

In the case of `CN1CCc2cccc3c2[C@@H]1Cc1ccc(O)c(O)c1-3` [(+)APO, S(+) isomers of apomorphine (APO)], the “Contralateral Head Deviation, Percent of Total” value [1] is reported as 57.2% of Total, the “Contralateral Head Deviation, Time” value [1] is reported as 412 ± 53 s and the “activity counts (arousal induced by 16 μg DA in accumbens)” value (“activity counts” below) ([2]; 0.3 mg/kg ip) is reported as 246 ± 41 activity counts. For the same compound, the “activity counts” value ([2]; 1.0 mg/kg ip) was 190 ± 37 activity counts, the “activity counts” value ([2]; 3.0 mg/kg ip) was 125 ± 19 activity counts and the ED50 ([2]; Rattus norvegicus, ip, DA 16 μg in accumbens, read-out: ID50 (the source's name)) was 4 mg/kg. For the same compound, the ID50 ([2]; ip, DA 16 μg in accumbens) was 3.6 mg/kg, the Locomotion [3, 12] was 43.0 ± 5.2 percent change and the “Stereotypy Score” value [4, 13] was 0.89 ± 0.36 rating units. For the same compound, the “Stereotypy Score” value [4, 12] was 1.92 ± 0.21 rating units, the “Stereotypy Score” value [4, 14] was 2.93 ± 0.32 rating units and the “Stereotypy Score” value [4, 15] was 0.32 ± 0.62 rating units. It also gave a Locomotion [5, 13] of 36.2 ± 4.3 percent change, a Locomotion [5, 14] of 42.1 ± 6.3 percent change and a Locomotion [5, 15] of -0.84 ± 0.22 percent change. For the same compound, the “ID50 to reduce the locomotor activating actions of (-)APO” value ([5]; s.c., (-)APO 0.3 mg/kg) was 4 mg/kg, the “ID50, spontaneous locomotor arousal” value ([5]; spontaneous activity) was > 50 mg/kg and the “Total Activity” value [6, 13] was 36.2 ± 0.92 percent change. The “Total Activity” value [6, 12] was 44.6 ± 0.75 percent change, the “Total Activity” value [6, 14] was 62.0 ± 0.48 percent change and the “Total Activity” value [6, 15] was -0.62 ± 0.33 percent change.

With `CCCN1CCc2cccc3c2C1Cc1ccc(O)c(O)c1-3` (racemic) [(±)-NPA, (RS)-N-n-Propylnorapomorphine] the IC50 (Dopamine Receptors [7]) was 3.5 nM and the IC50 (Dopamine Receptors [8]) was 5 nM.

With `CCCN1CCc2cccc3c2[C@H]1Cc1ccc(O)c(O)c1-3` [(-)NPA, (R)-N-n-propylnorapomorphine] the “Vmax (range of two experiments)” value ([9]; footnote range) was 8.9-11.1 (pmol/assay)/h, the Vmax ([9]; mean, substrate of rat liver COMT) was 10.0 (pmol/assay)/h and the Locomotion [3, 16] was 10.2 ± 6.3 percent change. The “Stereotypy Score” value ([4]; Table 1, (-) isomer 3 mg/kg, s.c., ± saline, maximum 3.0) was 2.9 ± 0.1 rating units, the “Stereotypy Score” value ([4]; Table 3, 0.1 mg/kg, s.c., maximum 3.0) was 1.1 ± 0.2 rating units and the “Stereotypy Score” value ([4]; Table 3, 0.3 mg/kg, s.c., maximum 3.0) was 2.0 ± 0.3 rating units. The “Stereotypy Score” value ([4]; Table 3, 3.0 mg/kg, s.c., maximum 3.0) was 2.9 ± 0.9 rating units, the “Stereotypy Score” value ([4]; Table 3, 5.0 mg/kg, s.c., maximum 3.0) was 3.0 ± 0.0 rating units and the “Stereotypy Score” value [4, 17] was 2.0 ± 0.2 rating units. For the same compound, the “Stereotypy Score” value [4, 16] was 2.8 ± 0.4 rating units, the Catalepsy score ([10]; 0.1 mg/kg) was 0.5 ± 0.2 and the Catalepsy score ([10]; 3.0 mg/kg) was 0.8 ± 0.3. For the same compound, the Locomotion [5, 17] was 48.1 ± 9.2 percent change, the “Total Activity” value ([6]; Table 3, 0.1 mg/kg, s.c.) was 2.0 ± 1.8 percent change vs. placebo con and the “Total Activity” value ([6]; Table 3, 0.3 mg/kg, s.c.) was 2.1 ± 3.2 percent change vs. placebo con. The “Total Activity” value ([6]; Table 3, 3.0 mg/kg, s.c.) was 231.4 ± 37 percent change vs. placebo con, the “Total Activity” value [6, 17] was 22.1 ± 3.7 percent change and the “Total Activity” value [6, 16] was 231.4 ± 37 percent change. The IC50 (Dopamine Receptors [7]) was 2 nM, the cAMP production ([11]; 1 μM) was 3.71 ± 0.31 picomoles per 2.5 min and the cAMP production ([11]; 5 μM) was 4.57 ± 0.13 picomoles per 2.5 min. The cAMP production ([11]; 10 μM) was 5.34 ± 0.27 picomoles per 2.5 min, the cAMP production ([11]; 50 μM) was 5.71 ± 0.24 picomoles per 2.5 min and the cAMP production ([11]; 100 μM) was 5.56 ± 0.24 picomoles per 2.5 min. It also gave a cAMP formation, % of control at 1 µM [11, 18] of 150%, a cAMP formation, % of control at 5 µM [11, 18] of 184% and a cAMP formation, % of control at 10 µM [11, 18] of 215%. For the same compound, the cAMP formation, % of control at 50 µM [11, 18] was 230%, the cAMP formation, % of control at 100 µM [11, 18] was 224% and the IC50 (Dopamine Receptors [8]) was 2.5 nM.
